# Assay results published in patent US12150995B2, “IRAK degraders and uses thereof” (Kymera Therapeutics, Inc., priority 2020, dated 2024).
# Target: T1, IRAK4 (Homo sapiens, UniProt Q9NWZ3)
# T1 construct: endogenous in cells; host or cells: OCI-LY10
# T1 sequence (Q9NWZ3 1-460): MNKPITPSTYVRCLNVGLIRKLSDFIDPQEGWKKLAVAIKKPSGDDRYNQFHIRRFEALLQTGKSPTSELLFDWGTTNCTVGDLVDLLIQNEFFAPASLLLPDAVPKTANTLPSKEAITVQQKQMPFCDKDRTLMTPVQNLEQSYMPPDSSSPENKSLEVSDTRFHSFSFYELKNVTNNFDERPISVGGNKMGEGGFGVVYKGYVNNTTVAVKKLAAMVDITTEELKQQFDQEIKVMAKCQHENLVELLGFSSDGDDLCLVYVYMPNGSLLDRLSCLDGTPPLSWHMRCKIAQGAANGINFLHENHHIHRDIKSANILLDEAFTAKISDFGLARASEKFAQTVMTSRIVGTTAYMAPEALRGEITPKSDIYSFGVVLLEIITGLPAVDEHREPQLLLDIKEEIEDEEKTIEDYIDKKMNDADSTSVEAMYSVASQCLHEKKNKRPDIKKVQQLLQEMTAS
# Assay: IRAK4 MSD Degradation in OCI-LY10
# Format: cell-based
# Conditions: OCI-LY10 cells, Meso Scale Discovery, incubated 4 to 24 hours
# Method in brief: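 IRAK4 degradation was quantified by Meso Scale electrochemiluminescence (anti-IRAK4 capture and detection antibodies) in lysates of treated OCI-LY10 cells. Compounds were dosed at 8 concentrations (1:3 dilutions, top 1 to 10 μM) for 4 to 24 h; DC50 derived by three-parameter logistic fitting.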
row,SMILES,DC50 [nM]
1,"Cc1cc2nn([C@H]3CC[C@H](CN4CCN(c5cccc6c5n(C)c(=O)n6[C@@H]5CCC(=O)NC5=O)CC4)CC3)cc2cc1NC(=O)c1cccc(C(F)(F)F)n1 [I-400, N-[2-[4-[[4-[1-[(3R)-2,6-dioxo-3-piperidyl]-3-methyl-2-oxo-benzimidazol-4-yl]piperazin-1-yl]methyl]cyclohexyl]-6-methyl-indazol-5-yl]-6-(trifluoromethyl)pyridine-2-carboxamide]",< 10
2,Cn1c(=O)n(C2CCC(=O)NC2=O)c2ccc(F)c(C3CCN(C[C@H]4C[C@H](n5cc6cc(NC(=O)c7cccc(C(F)(F)F)n7)ccc6n5)C4)CC3)c21 (some centres unmarked) [I-151],< 10
3,COc1cc2nn([C@H]3CC[C@H](CN4CCC(c5ccc6c(c5)n(C)c(=O)n6C5CCC(=O)NC5=O)CC4)CC3)cc2cc1NC(=O)c1cncc(C#N)c1 (some centres unmarked) [I-169],> 200
4,Cc1cccc(C(=O)Nc2cc3sc([C@H]4CC[C@H](CN5C[C@@H]6C[C@H]5CN6CCNc5cccc6c5C(=O)N(C5CCC(=O)NC5=O)C6=O)CC4)nc3cc2C(C)(C)O)n1 (some centres unmarked) [I-473],100 to 200
5,COc1cc2nc([C@H]3CC[C@H](CN(C)CCCNc4cccc5c4C(=O)N(C4CCC(=O)NC4=O)C5=O)CC3)sc2cc1NC(=O)c1cncc(Cl)c1 (some centres unmarked) [I-483],> 200
6,COc1cc2nn([C@H]3CC[C@H](CN4CCC(c5c(F)ccc6c5n(C)c(=O)n6C5CCC(=O)NC5=O)CC4)CC3)cc2cc1NC(=O)c1cccc(C(F)(F)F)n1 (some centres unmarked) [I-101],< 10
7,COc1cc2nn([C@H]3CC[C@H](CN4CCC(c5cccc6c5n(C)c(=O)n6C5CCC(=O)NC5=O)CC4)CC3)cc2cc1NC(=O)n1ccc2cccnc21 (some centres unmarked) [I-112],< 10
8,CN(CCCO[C@H]1C[C@H](Nc2cccc3c2C(=O)N(C2CCC(=O)NC2=O)C3=O)C1)C[C@H]1CC[C@H](n2cc3cc(NC(=O)c4cccc(C(F)(F)F)n4)ccc3n2)CC1 (some centres unmarked) [I-354],> 200
9,COc1cc2nn([C@H]3CC[C@H](CN(C)C4CCN(c5ccc6c(N7CCC(=O)NC7=O)cncc6c5)CC4)CC3)cc2cc1NC(=O)c1cccc(C(F)(F)F)n1 [I-320],< 10
10,Cc1cc2nn([C@H]3CC[C@H](CN4C5CC4CN(c4cccc6c4n(C)c(=O)n6C4CCC(=O)NC4=O)C5)CC3)cc2cc1NC(=O)c1cccc(C(F)(F)F)n1 (some centres unmarked) [I-396],10 to 50
11,Cn1c(=O)n(C2CCC(=O)NC2=O)c2cccc(C3CCN(C[C@H]4CC[C@H](n5cc6cc(NC(=O)c7cncc(C#N)c7)c(N7C[C@H]8C[C@@H]7CO8)cc6n5)CC4)CC3)c21 (some centres unmarked) [I-212],> 200
12,Cn1c(=O)n(C2CCC(=O)NC2=O)c2cccc(C3CCN(C[C@H]4CC[C@H](n5cc6cc(NC(=O)c7cnccn7)c(F)cc6n5)CC4)CC3)c21 (some centres unmarked) [I-49],> 200
13,CN(C(=O)[C@H]1CC[C@H](n2cc3cc(NC(=O)c4cccc(C(F)(F)F)n4)ncc3n2)CC1)C1CCN(c2cccc3c2n(C)c(=O)n3C2CCC(=O)NC2=O)CC1 (some centres unmarked) [I-187],< 10
14,CC(C)c1cc2nn([C@H]3CC[C@H](CN4CCN(c5cccc6c5n(C)c(=O)n6C5CCC(=O)NC5=O)CC4)CC3)cc2cc1NC(=O)c1cccc(C(F)(F)F)n1 (some centres unmarked) [I-397],< 10
15,O=C1CCN(c2cncc3c(N4CCN(C[C@H]5CC[C@H](n6cc7cc(NC(=O)c8cccc(C(F)(F)F)n8)c(C(F)F)cc7n6)CC5)CC4)cccc23)C(=O)N1 [I-371],< 10
16,O=C1CCN(c2cncc3cc(C4CCN(C[C@H]5CC[C@H](c6nc7cnc(NC(=O)c8cccc(C(F)(F)F)n8)cc7s6)CC5)CC4)ccc23)C(=O)N1 [I-241],> 200
17,"Cn1c(=O)n(C2CCC(=O)NC2=O)c2cccc(N3CC4CC(C3)N4C[C@H]3CC[C@@H](n4cc5cc(NC(=O)c6cccc(C(F)(F)F)n6)ccc5n4)CC3)c21 (single isomer, unassigned) [I-156, N-[2-[4-[[3-[1-(2,6-dioxo-3-piperidyl)-3-methyl-2-oxo-benzimidazol-4-yl]-3,6-diazabicyclo[3.1.1]heptan-6-yl]methyl]cyclohexyl]indazol-5-yl]-6-(trifluoromethyl)pyridine-2-carboxamide]",> 200
18,Cc1cccc(C(=O)Nc2cc3sc([C@H]4CC[C@H](CN5C[C@H]6C[C@@H]5CN6CCNc5cccc6c5C(=O)N(C5CCC(=O)NC5=O)C6=O)CC4)nc3cc2C(C)(C)O)n1 (some centres unmarked) [I-475],< 10
19,"COc1cc2nn([C@H]3CC[C@H](CN(C)[C@H]4CC[C@@H](c5cccc6c5n(C)c(=O)n6C5CCC(=O)NC5=O)CC4)CC3)cc2cc1NC(=O)c1cccc(C(F)(F)F)n1 (some centres unmarked) [I-6, N-[2-[4-[[[4-[1-(2,6-dioxo-3-piperidyl)-3-methyl-2-oxo-benzimidazol-4-yl]cyclohexyl]-methyl-amino]methyl]cyclohexyl]-6-methoxy-indazol-5-yl]-6-(trifluoromethyl)pyridine-2-carboxamide]",< 10
20,CN(CCCO[C@H]1C[C@@H](Nc2cccc3c2C(=O)N(C2CCC(=O)NC2=O)C3=O)C1)C[C@H]1CC[C@H](n2cc3cc(NC(=O)c4cccc(C(F)(F)F)n4)c(C(C)(C)O)cc3n2)CC1 (some centres unmarked) [I-464],10 to 50
21,COc1cc2nn([C@H]3CC[C@H](CN4CCN(c5cccc6c(N7CCC(=O)NC7=O)cncc56)CC4)CC3)cc2cc1NC(=O)c1cncc(C#N)c1 [I-259],10 to 50

row,SMILES,DC50 [nM]
1,COc1cc2nn([C@H]3CC[C@H](CN4CCC(c5ccc6c(N7CCC(=O)NC7=O)cncc6c5)CC4)CC3)cc2cc1NC(=O)c1cccc(C(F)(F)F)n1 [I-322],< 10
2,Cn1c(=O)n(C2CCC(=O)NC2=O)c2cccc(C3CCN(C[C@H]4CC[C@H](n5cc6cc(NC(=O)c7cccc(C(F)(F)F)c7F)ccc6n5)CC4)CC3)c21 (some centres unmarked) [I-214],< 10
3,COc1cc2nc([C@H]3CC[C@H](CN(C)CCCCNc4cccc5c4C(=O)N(C4CCC(=O)NC4=O)C5=O)CC3)sc2cc1NC(=O)c1cncc(F)c1 (some centres unmarked) [I-479],> 200
4,COc1cc2nn([C@H]3CC[C@H](CN4CCN(c5cccc6c5n(C)c(=O)n6C5CCC(=O)NC5=O)CC4)CC3)cc2cc1NC(=O)c1cncc(C)c1 (some centres unmarked) [I-365],< 10
5,COc1cc2nc([C@H]3CC[C@H](CN(C)CCCNc4cccc5c4C(=O)N(C4CCC(=O)NC4=O)C5=O)CC3)sc2cc1NC(=O)c1cncc(C)c1 (some centres unmarked) [I-459],> 200
6,COc1cc2nn([C@H]3CC[C@H](CN(C)C4CCN(c5cc(C)cc6c5n(C)c(=O)n6C5CCC(=O)NC5=O)CC4)CC3)cc2cc1NC(=O)c1cccc(C(F)(F)F)n1 (some centres unmarked) [I-56],10 to 50
7,CC(C)(O)c1cc2nc([C@H]3CC[C@H](C(=O)N4CCC5(CC4)CC(CCNc4cccc6c4C(=O)N(C4CCC(=O)NC4=O)C6=O)C5)CC3)sc2cc1NC(=O)c1cccc(C(F)(F)F)n1 (some centres unmarked) [I-486],100 to 200
8,COc1cc2nn([C@H]3CC[C@H](CN4CCN(c5ccc(F)c6c(N7CCC(=O)NC7=O)cncc56)CC4)CC3)cc2cc1NC(=O)c1cccc(C(F)(F)F)n1 [I-311],< 10
9,COc1cc2nc([C@H]3CC[C@H](CN(C)CCCCNc4cccc5c4C(=O)N(C4CCC(=O)NC4=O)C5=O)CC3)sc2cc1NC(=O)c1cccc(C)n1 (some centres unmarked) [I-437],10 to 50
10,COc1cc2nn([C@H]3CC[C@H](CN4CCC(c5ccc(F)c6c5n(C)c(=O)n6C5CCC(=O)NC5=O)CC4)CC3)cc2cc1NC(=O)c1cccc(C(F)(F)F)n1 (some centres unmarked) [I-51],< 10
11,COc1cc2nn([C@H]3CC[C@H](CN4CCC(c5cc(C)cc6c5n(C)c(=O)n6C5CCC(=O)NC5=O)CC4)CC3)cc2cc1NC(=O)c1cccc(C(F)(F)F)n1 (some centres unmarked) [I-35],< 10
12,COc1cc2nc([C@H]3CC[C@H](CN4CCC5(CC4)CC(CCNc4cccc6c4C(=O)N(C4CCC(=O)NC4=O)C6=O)C5)CC3)oc2cc1NC(=O)c1cnn2cccnc12 (some centres unmarked) [I-7],> 200
13,C[C@H]1CN(c2cccc3c2n(C)c(=O)n3C2CCC(=O)NC2=O)CCN1C[C@H]1CC[C@H](n2cc3cc(NC(=O)c4cccc(C(F)(F)F)n4)ccc3n2)CC1 (some centres unmarked) [I-248],< 10
14,CN(C)c1cc2nn([C@H]3CC[C@H](CN4CCN(c5cccc6c5n(C)c(=O)n6C5CCC(=O)NC5=O)CC4)CC3)cc2cc1NC(=O)c1cccc(C(F)(F)F)n1 (some centres unmarked) [I-388],10 to 50
15,COc1cc2nn([C@H]3CC[C@H](CN4CCN(c5cccc6c(N7CCC(=O)NC7=O)ncnc56)CC4)CC3)cc2cc1NC(=O)c1cccc(C(F)(F)F)n1 [I-380],10 to 50
16,Cn1c(=O)n(C2CCC(=O)NC2=O)c2cccc(N3CCN(C[C@H]4CC[C@H](n5cc6cc(NC(=O)c7cccc(C(F)(F)F)n7)c(N7C[C@@H]8C[C@H]7CO8)cc6n5)CC4)CC3)c21 (some centres unmarked) [I-383],< 10
17,Cn1c(=O)n(C2CCC(=O)NC2=O)c2cccc(C3CCN(C[C@H]4C[C@H](n5cc6cc(NC(=O)c7cccc(C(F)(F)F)n7)c(Cl)cc6n5)C4)CC3)c21 (some centres unmarked) [I-90],10 to 50
18,CN(C[C@H]1CC[C@H](n2cc3cc(NC(=O)c4cccc(C(F)(F)F)n4)ncc3n2)CC1)C1CCN(c2ccc3c(N4CCC(=O)NC4=O)cncc3c2)CC1 [I-317],100 to 200
19,COc1cc2nn([C@H]3CC[C@H](CN4CCN(c5cccc6c(N7CCC(=O)N(C)C7=O)cncc56)CC4)CC3)cc2cc1NC(=O)c1cccc(C(F)(F)F)n1 [I-330],> 200
20,"COc1cc2nn([C@H]3CC[C@@H](CN4CC5(CC(CCNc6cccc7c6C(=O)N(C6CCC(=O)NC6=O)C7=O)C5)C4)CC3)cc2cc1NC(=O)c1cccc(C(C)(F)F)n1 (some centres unmarked) [I-11, 6-(1,1-Difluoroethyl)-N-[2-[4-[[6-[2-[[2-(2,6-dioxo-3-piperidyl)-1,3-dioxo-isoindolin-4-yl]amino]ethyl]-2-azaspiro[3.3]heptan-2-yl]methyl]cyclohexyl]-6-methoxy-indazol-5-yl]pyridine-2-carboxamide]",50 to 100
